Measured values as given in US8846694B2, “Pyrrolidone derivatives for use as MetAP-2 inhibitors” (Merck Patent GmbH, priority 2008, dated 2014).

target: MetAP-2 (Homo sapiens, UniProt P50579); assay: MetAP-2 activity measurement (coupled enzymatic reactions, substrate Met-Arg-Ser, photometric at 450 nm); format: biochemical; conditions: read-out: IC50 enzyme (Inhibition of MetAP-2)
Method: MetAP-2 Activity Measurement
The MetAP-2 activity is determined by coupling enzymatic reactions. The tripeptide Met-Arg-Ser (MAS) is employed as substrate. The methionine liberated is firstly converted into Metox and H2O2 by L-aminooxidase (AAO). In the second step, the peroxidase (POD) with the aid of the H2O2 catalyses the oxidation of the leukodye dianisidine to dianisidineox, the increase of which is detected photometrically at 450 nm.
MetAP-2 activity can be recorded continuously as kinetics. The reaction scheme illustrates that one mol of dianisidineox is formed per mol of methionene. The MetAP-2 enzyme activity can therefore be calculated directly as Δ absorption per time unit. […] of the MetAP-2 activity (mol of Met/time unit) is possible with the aid of the dianisidineox extinction coefficient.
The change in extinction per time unit is depicted graphically and a slope calculation is carried out in the visually linear region of the reaction.

Sequence of MetAP-2 (P50579 whole entry, species assumed): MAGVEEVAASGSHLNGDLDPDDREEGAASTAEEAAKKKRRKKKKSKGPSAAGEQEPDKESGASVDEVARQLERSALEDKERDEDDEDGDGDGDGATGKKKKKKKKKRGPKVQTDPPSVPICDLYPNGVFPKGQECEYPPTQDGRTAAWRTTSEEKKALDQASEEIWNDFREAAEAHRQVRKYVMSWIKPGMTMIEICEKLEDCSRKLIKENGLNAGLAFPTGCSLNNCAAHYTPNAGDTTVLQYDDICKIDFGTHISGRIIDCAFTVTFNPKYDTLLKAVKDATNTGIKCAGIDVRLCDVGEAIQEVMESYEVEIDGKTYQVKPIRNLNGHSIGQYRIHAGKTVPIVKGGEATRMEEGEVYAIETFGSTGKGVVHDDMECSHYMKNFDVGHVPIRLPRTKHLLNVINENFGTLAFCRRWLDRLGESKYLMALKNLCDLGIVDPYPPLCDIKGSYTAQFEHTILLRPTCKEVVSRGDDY

IC50 [µM] | SMILES
0.01 to 1 | Cn1ccc(CN(C=O)Cc2ccc(OC[C@H]3CCCN3c3ncnc4[nH]cnc34)c3ccccc23)n1 [A102, N-(1-Methyl-1H-pyrazol-3-ylmethyl)-N-{4-[(R)-1-(9H-purin-6-yl)pyrrolidin-2-ylmethoxy]-naphthalen-1-ylmethyl}formamide]
1 to 10 | c1ccc(-c2nc3ccccc3s2)c(OC[C@H]2CCCN2c2ncnc3[nH]cnc23)c1 [A103, 6-[(R)-2-(2-Benzothiazol-2-ylphenoxymethyl)-pyrrolidin-1-yl]-9H-purine]
1 to 10 | c1cc(OC[C@H]2CCCN2c2ncnc3[nH]cnc23)c2nccn2c1 [A104, 6-[(R)-2-(Imidazo[1,2-a]pyridin-8-yloxymethyl)-pyrrolidin-1-yl]-9H-purine]
0.01 to 1 | FC(F)(F)c1cc(OC[C@H]2CCCN2c2ncnc3[nH]cnc23)c2cc(Cl)ccc2n1 [A105, 6-Chloro-4-[(R)-1-(9H-purin-6-yl)pyrrolidin-2-yl-methoxy]-2-trifluoromethylquinoline]
> 10 | c1ccc(CN2CCN(c3ccc4cccc(OC[C@H]5CCCN5c5ncnc6[nH]cnc56)c4c3)CC2)cc1 [A106, 6-{(R)-2-[7-(4-Benzylpiperazin-1-yl)naphthalen-1-yloxymethyl]pyrrolidin-1-yI}-9H-purine]
1 to 10 | CN(C)c1ccc2cc(S(=O)(=O)O)cc(OC[C@H]3CCCN3c3ncnc4[nH]cnc34)c2c1 [A107, 6-Dimethylamino-4-[(R)-1-(9H-purin-6-yl)-pyrrolidin-2-ylmethoxy]naphthalene-2-sulfonic acid]
> 10 | c1ccc2c(NC[C@H]3CCCN3c3ncnc4[nH]cnc34)cccc2c1 [A108, Naphthalen-1-yl[(R)-1-(9H-purin-6-yl)pyrrolidin-2-ylmethyl]amine]
0.01 to 1 | c1ccc2c(OC[C@H]3CCCN3c3ncnc4[nH]cnc34)nccc2c1 [A109, 1-[(R)-1-(9H-Purin-6-yl)pyrrolidin-2-yl-methoxy]isoquinoline]
0.01 to 1 | CCCN1CCN(Cc2ccc(OC[C@H]3CCCN3c3ncnc4[nH]cnc34)c3ccccc23)CC1 [A110, 6-{(R)-2-[4-(4-Propylpiperazin-1-ylmethyl)-naphthalen-1-yloxymethyl]pyrrolidin-1-yl}-9H-purine]
0.01 to 1 | CC(=O)N1CCN(Cc2ccc(OC[C@H]3CCCN3c3ncnc4[nH]cnc34)c3ccccc23)CC1 [A111, 1-(4-{4-[(R)-1-(9H-Purin-6-yl)pyrrolidin-2-yl-methoxy]naphthalen-1-ylmethyl}piperazin-1-yl)-ethanone]
0.01 to 1 | c1ccc2c(OC[C@H]3CCCN3c3ncnc4[nH]cnc34)ccc(CN3CCN(C4CCCC4)CC3)c2c1 [A112, 6-{(R)-2-[4-(4-Cyclopentylpiperazin-1-yl-methyl)naphthalen-1-yloxymethyl]pyrrolidin-1-yl}-9H-purine]
0.01 to 1 | COCCN1CCN(Cc2ccc(OC[C@H]3CCCN3c3ncnc4[nH]cnc34)c3ccccc23)CC1 [A113, 6-((R)-2-{4-[4-(2-Methoxyethyl)piperazin-1-yl-methyl]naphthalen-1-yloxymethyl}pyrrolidin-1-yl)-9H-purine]
0.01 to 1 | OC[C@H]1CCCN1Cc1ccc(OC[C@H]2CCCN2c2ncnc3[nH]cnc23)c2ccccc12 [A114, ((R)-1-{4-[(R)-1-(9H-Purin-6-yl)pyrrolidin-2-yl-methoxy]naphthalen-1-ylmethyl}pyrrolidin-2-yl)-methanol]
0.01 to 1 | c1cc(OC[C@H]2CCCN2c2ncnc3[nH]cnc23)c2cc(N3CCNCC3)ccc2c1 [A115, 6-[(R)-2-(7-Piperazin-1-ylnaphthalen-1-yl-oxymethyl)pyrrolidin-1-yl]-9H-purine]
0.01 to 1 | CC(=O)N1CCN(c2ccc3cccc(OC[C@H]4CCCN4c4ncnc5[nH]cnc45)c3c2)CC1 [A116, 1-(4-{8-[(R)-1-(9H-Purin-6-yl)pyrrolidin-2-yl-methoxy]naphthalen-2-yl}piperazin-1-yl)-ethanone]
0.01 to 1 | Cc1ccc2nc(C(F)(F)F)cc(OC[C@H]3CCCN3c3ncnc4[nH]cnc34)c2c1 [A117, 6-Methyl-4-[(R)-1-(9H-purin-6-yl)pyrrolidin-2-yl-methoxy]-2-trifluoromethylquinoline]
0.01 to 1 | COc1ccc2cccc(OC[C@H]3CCCN3c3ncnc4[nH]cnc34)c2c1 [A118, 6-[(R)-2-(7-Methoxynaphthalen-1-yloxymethyl)-pyrrolidin-1-yl]-9H-purine]
1 to 10 | O=C(OCc1ccccc1)N1CCc2cccc(OC[C@H]3CCCN3c3ncnc4[nH]cnc34)c2C1 [A120, Benzyl 8-[(R)-1-(9H-purin-6-yl)pyrrolidin-2-yl-methoxy]-3,4-dihydro-1H-isoquinoline-2-carboxylate]

IC50 [µM] | SMILES
1 to 10 | O=C1CCc2cccc(OC[C@H]3CCCN3c3ncnc4[nH]cnc34)c2C1 [A121, 8-[(R)-1-(9H-Purin-6-yl)pyrrolidin-2-ylmethoxy]-3,4-dihydro-1H-naphthalen-2-one]
0.01 to 1 | c1cc2c(c(OC[C@H]3CCCN3c3ncnc4[nH]cnc34)c1)CNCC2 [A122, 8-[(R)-1-(9H-Purin-6-yl)pyrrolidin-2-ylmethoxy]-1,2,3,4-tetrahydroisoquinoline]
0.01 to 1 | FC(F)(F)c1ccc2nccc(OC[C@H]3CCCN3c3ncnc4[nH]cnc34)c2c1 [A123, 4-[(R)-1-(9H-Purin-6-yl)pyrrolidin-2-ylmethoxy]-6-trifluoromethylquinoline]
1 to 10 | Oc1ccc2cccc(OC[C@H]3CCCN3c3ncnc4[nH]cnc34)c2c1 [A124, 8-[(R)-1-(9H-Purin-6-yl)pyrrolidin-2-yl-methoxy]naphthalen-2-ol]
0.01 to 1 | Cn1ncc(Cl)c1C[C@@H]1CCc2c(OC[C@H]3CCCN3c3ncnc4[nH]cnc34)cccc2C1=O [A125, (S)-2-(4-Chloro-2-methyl-2H-pyrazol-3-yl-methyl)-5-[(R)-1-(9H-purin-6-yl)pyrrolidin-2-yl-methoxy]-3,4-dihydro-2H-naphthalen-1-one]
0.01 to 1 | Cn1ncc(Cl)c1C[C@H]1CCc2c(OC[C@H]3CCCN3c3ncnc4[nH]cnc34)cccc2C1=O [A126, (R)-2-(4-Chloro-2-methyl-2H-pyrazol-3-yl-methyl)-5-[(R)-1-(9H-purin-6-yl)pyrrolidin-2-yl-methoxy]-3,4-dihydro-2H-naphthalen-1-one]
0.01 to 1 | CCN(CC)C(=O)c1cc2cccc(OC[C@H]3CCCN3c3ncnc4[nH]cnc34)c2cc1O [A127, N,N-Diethyl-3-hydroxy-5-[(R)-1-(9H-purin-6-yl)-pyrrolidin-2-ylmethoxy]naphthalene-2-carboxamide]
0.01 to 1 | N#CCCN1CCN(Cc2ccc(OC[C@H]3CCCN3c3ncnc4[nH]cnc34)c3ccccc23)CC1 [A128, 3-(4-{4-[(R)-1-(9H-Purin-6-yl)pyrrolidin-2-yl-methoxy]naphthalen-1-ylmethyl}piperazin-1-yl)-propionitrile]
0.01 to 1 | O=C1c2cccc(OC[C@H]3CCCN3c3ncnc4[nH]cnc34)c2CC[C@@H]1Cc1cc[nH]n1 [A129, (R)-5-[(R)-1-(9H-Purin-6-yl)pyrrolidin-2-yl-methoxy]-2-(1H-pyrazol-3-ylmethyl)-3,4-dihydro-2H-naphthalen-1-one]
0.01 to 1 | O=C1c2cccc(OC[C@H]3CCCN3c3ncnc4[nH]cnc34)c2CC[C@H]1Cc1cc[nH]n1 [A130, (S)-5-[(R)-1-(9H-Purin-6-yl)pyrrolidin-2-yl-methoxy]-2-(1H-pyrazol-3-ylmethyl)-3,4-dihydro-2H-naphthalen-1-one]
> 10 | Oc1ccc2cccc(NC[C@H]3CCCN3c3ncnc4[nH]cnc34)c2c1 [A131, 8-{[(R)-1-(9H-Purin-6-yl)pyrrolidin-2-ylmethyl]-amino}naphthalen-2-ol]
> 10 | O=S(=O)(O)c1ccc2cccc(NC[C@H]3CCCN3c3ncnc4[nH]cnc34)c2c1 [A132, 8-{[(R)-1-(9H-Purin-6-yl)pyrrolidin-2-yimethyl]-amino}naphthalene-2-sulfonic acid]
1 to 10 | CC(C)(C)OC(=O)NCCCCCC(=O)N1CCc2cccc(OC[C@H]3CCCN3c3ncnc4[nH]cnc34)c2C1 [A133, tert-Butyl (6-oxo-6-{8-[(R)-1-(9H-purin-6-yl)-pyrrolidin-2-ylmethoxy]-3,4-dihydro-1H-isoquinolin-2-yl}hexyl)carbamate]
1 to 10 | O=C1OCCC1CCn1cnc2c(N3CCC[C@@H]3COc3cccc4ccc(O)cc34)ncnc21 (stereo partly drawn) [A134, 3-(2-{6-[(R)-2-(7-Hydroxynaphthalen-1-yl-oxymethyl)pyrrolidin-1-yl]purin-9-yl}ethyl)-dihydrofuran-2-one]
> 10 | NC(=O)CCn1cnc2c(N3CCC[C@@H]3COc3cccc4ccc(O)cc34)ncnc21 [A135, 3-{6-[(R)-2-(7-Hydroxynaphthalen-1-yl-oxymethyl)pyrrolidin-1-yl]purin-9-yl}-propionamide]
> 10 | CCOC(=O)CCCCn1cnc2c(N3CCC[C@@H]3COc3cccc4ccc(O)cc34)ncnc21 [A136, Ethyl 5-{6-[(R)-2-(7-hydroxynaphthalen-1-yl-oxymethyl)pyrrolidin-1-yl]purin-9-yl}pentanoate]
0.01 to 1 | FC(F)(F)Oc1ccc2nccc(OC[C@H]3CCCN3c3ncnc4[nH]cnc34)c2c1 [A137, 4-[(R)-1-(9H-Purin-6-yl)pyrrolidin-2-ylmethoxy]-6-trifluoromethoxyquinoline]
0.01 to 1 | NCCCCCC(=O)N1CCc2cccc(OC[C@H]3CCCN3c3ncnc4[nH]cnc34)c2C1 [A138, 6-Amino-1-{8-[(R)-1-(9H-purin-6-yl)pyrrolidin-2-ylmethoxy]-3,4-dihydro-1H-isoquinolin-2-yl}-hexan-1-one]

SMILES | IC50 [µM]
CCCCOC1=Cc2c(cccc2OC[C@H]2CCCN2c2ncnc3[nH]cnc23)CC1 [A119, 6-[(R)-2-(7-Butoxy-5,6-dihydronaphthalen-1-yl-oxymethyl)pyrrolidin-1-yl]-9H-purine] | 1 to 10
